Data published in patent US20240350478A1, “APPLICATION OF BENZISOQUINOLINE DIKETONE COMPOUND IN TREATMENT OF TUMOR” (NANJING SHIJIANG MEDICINE TECHNOLOGY CO., LTD, priority 2021, published 2024).
Counter-ions that a name gives are not always drawn.

Experiments:
Assay type in all cases: cell-based
[1] = tested on: GB-1 (human glioblastoma cell); test: CellTiter-Glo cell viability, GB-1; conditions: insensitive group, 3-4 days of culture, n=3
Experimental: (§1) The inhibitory effect of pixantrone maleate on various tumor cell lines was detected using cell activity detection reagent. • Cell viability was detected using the Promega CellTiter-Glo kit, cell viability was determined by directly measuring intracellular ATP content. In the experiment, the IC50 value of pixantrone maleate on various tumor cell lines was determined. Each tumor cell was cultured separately in relevant medium (+p/s), and was incubated for 3 h, then the gradient diluted pixantrone maleate was added. After 3-4 days of culture, the relevant IC50 (50% inhibiting concentration) was measured (n=3). The name, source and culture conditions of each tumor cell line were as follows: Cell line GB-1 (JCRB, No. IFO50489) was cultured in 10% fetal bovine serum-containing DMEM medium (+P/S).

[2] = tested on: CFPAC-1 (human pancreatic cancer cell); test: CellTiter-Glo cell viability, CFPAC-1; conditions: insensitive group, 3-4 days of culture, n=3
Experimental: as §1, with “CFPAC-1 (ATCC,” for “GB-1 (JCRB,”, “CRL-1918)” for “IFO50489)”, “IMDM” for “DMEM”

[3] = tested on: WSU-DLCL2 (human diffuse large B-cell lymphoma); test: CellTiter-Glo cell viability, WSU-DLCL2; conditions: WSUDLCL2, sensitive group, 3-4 days of culture, n=3
Experimental: as §1, with “WSU-DLCL2 (DSMZ,” for “GB-1 (JCRB,”, “ACC-575)” for “IFO50489)”, “RPMI1640” for “DMEM”

[4] = tested on: MDA-MB-453 (breast cancer cell); test: CellTiter-Glo cell viability, MDA-MB-453; conditions: Homo sapiens, sensitive group, 3-4 days of culture, n=3
Experimental: as §1, with “MDA-MB-453 (ATCC,” for “GB-1 (JCRB,”, “HTB-131)” for “IFO50489)”, “Leibovitz's L-15” for “DMEM”

[5] = tested on: NCI-H82 (human small cell lung cancer cell); test: CellTiter-Glo cell viability, NCI-H82; conditions: sensitive group, 3-4 days of culture, n=3
Experimental: as §1, with “NCI-H82 (ATCC,” for “GB-1 (JCRB,”, “HTB-175)” for “IFO50489)”, “RPMI1640” for “DMEM”

[6] = tested on: SW48 (human colon adenocarcinoma cell); test: CellTiter-Glo cell viability, SW48; conditions: sensitive group, 3-4 days of culture, n=3
Experimental: as §1, with “SW48 (ATCC,” for “GB-1 (JCRB,”, “CCL-231)” for “IFO50489)”, “Leibovitz's L-15” for “DMEM”

[7] = tested on: 786-O (clear cell renal cell adenocarcinoma cell); test: CellTiter-Glo cell viability, 786-O; conditions: Homo sapiens, 786-0, insensitive group, 3-4 days of culture, n=3
Experimental: as §1, with “786-0 (ATCC,” for “GB-1 (JCRB,”, “CRL-1932)” for “IFO50489)”, “RPMI1640” for “DMEM”

[8] = tested on: SF-126 (human glioblastoma multiforme cell); test: CellTiter-Glo cell viability, SF-126; conditions: insensitive group, 3-4 days of culture, n=3
Experimental: as §1, with “SF126” for “GB-1”, “IFO50286)” for “IFO50489)”, “EMEM” for “DMEM”

NCI-H82 (ov-NNMT) cell = test: CellTiter-Glo cell viability, NNMT protein-overexpressing NCI-H82 (ov-NNMT) cell; conditions: Homo sapiens, n=3
Excerpt: (§2) The NNMT protein-overexpressing NCI-H82 cell (NCI-H82 (ov-NNMT)) was obtained by inserting the NNMT gene into NCI-H82 cell using a viral vector. The control NCI-H82 cell (NCI-H82 (Con)) was obtained by transfecting NCI-H82 cell with empty virus vector without carrying NNMT gene. The expressing level of NNMT protein in control NCI-H82 cell (NCI-H82 (Con)) and NNMT protein-overexpressing NCI-H82 cell (NCI-H82 (ov-NNMT)) was detected using Western Blot assay (as shown in FIG. 7), it could be seen from FIG. 7 that the NNMT protein in NCI-H82 (ov-NNMT) cell was overexpressed compared with the expression level of NNMT protein in NCI-H82(Con) cell. The IC50 value of pixantrone maleate on control NCI-H82 cell (NCI-H82 (Con)) and NNMT protein-overexpressing NCI-H82 cell (NCI-H82 (ov-NNMT)) was determined using Promega CellTiter-Glo kit which detected cell viability by directly measuring intracellular ATP content (n=3), the experiment result was shown in Table 4 below: […]

[9] = tested on: G-401 (human renal carcinoma Wilms cell); test: CellTiter-Glo cell viability, G-401; conditions: sensitive group, 3-4 days of culture, n=3
Experimental: as §1, with “G-401 (ATCC,” for “GB-1 (JCRB,”, “CRL-1441)” for “IFO50489)”, “McCoy's 5a” for “DMEM”

NCI-H82 (Con) cell = test: CellTiter-Glo cell viability, control NCI-H82 (Con) cell; conditions: Homo sapiens; control NCI-H82 cell transfected with empty virus vector; n=3
Excerpt: as §2

Work on `NCCNc1ccc(NCCN)c2c1C(=O)c1ccncc1C2=O` [Pixantrone maleate, pixantrone maleate] yielded an IC50 [1] of 6560 nM, an IC50 [2] of 11700 nM and an IC50 [3] of 20 nM. The IC50 [4] was 860 nM, the IC50 [5] was 740 nM and the IC50 [6] was 20 nM. It also gave an IC50 [7] of 21600 nM, an IC50 [8] of 5420 nM and an IC50 (NCI-H82 (ov-NNMT) cell) of 1930 nM. The IC50 [9] was 290 nM and the IC50 (NCI-H82 (Con) cell) was 690 nM.
